Measurements from patent US10357485B1, “Anti-cancer compound” (KING SAUD UNIVERSITY, priority 2018, dated 2019).
Where two headings read alike, the source gives them in different places.

Legend:
Assay type in all cases: cell-based, human
MCF7 cells = assay: MTT cytotoxicity assay on MCF7 cells; settings: MCF7, 1-20 μM, 24 and 48 hours
Description: (§1) As described in detail herein, a cytotoxicity assay of compound 4 was performed on four human cancer cell lines—JURKAT, NCI-H460, HCT116 and MCF7—with camptothecin (CPT) as a positive control. The inhibitory effects of compound 4 on JURKAT, NCI-H460, HCT116 and MCF7 cancer cells were determined by an MTT (3-[4,5-dimethylthiazol-2-yl]-2,5 diphenyltetrazolium bromide) assay. The cancer cells were exposed to compound 4 at various concentrations of 1, 5, 10, 15, and 20 μM for different incubation periods of 24 h and 48 h. […] The stock solutions of 1 mM compound 4 and camptothecin (40 μM) were prepared, respectively, in DMSO. Further dilutions of 1, 5, 10, 15, and 20 μM were made in Dulbecco's Modified Eagle's Medium (DMEM) for treatment of cancer cells. […] Adherent cells were trypsinized, counted and seeded in 96-well plates for viability studies. […] JURKAT cells were washed with D-PBS, counted and seeded in 96-well plates for viability studies. Cytotoxicity of compound 4 for JURKAT cells was determined by 3-(4,5-dimethylthiazol-2-yl)-2,5-diphenyltetrazolium bromide (MTT) assay. […] The MTT assay was performed according to manufacturer instructions and absorbance of the treated and untreated cells were measured in a microplate reader at 570 nm wavelength. […]

NCI-H460 cells = assay: MTT cytotoxicity assay on NCI-H460 cells; settings: NCI-H460, 1-20 μM, 24 and 48 hours
Description: as §1

JURKAT cells [1] = assay: MTT cytotoxicity assay on JURKAT cells; settings: for IC50: Homo sapiens, JURKAT cells
Description: As described in detail herein, a cytotoxicity assay of compound 4 was performed on four human cancer cell lines—JURKAT, NCI-H460, HCT116 and MCF7—with camptothecin (CPT) as a positive control. The inhibitory effects of compound 4 on JURKAT, NCI-H460, HCT116 and MCF7 cancer cells were determined by an MTT (3-[4,5-dimethylthiazol-2-yl]-2,5 diphenyltetrazolium bromide) assay. The cancer cells were exposed to compound 4 at various concentrations of 1, 5, 10, 15, and 20 μM for different incubation periods of 24 h and 48 h. […] The stock solutions of 1 mM compound 4 and camptothecin (40 μM) were prepared, respectively, in DMSO. Further dilutions of 1, 5, 10, 15, and 20 μM were made in Dulbecco's Modified Eagle's Medium (DMEM) for treatment of cancer cells. MCF-7 (human breast cancer); HCT116 (human colon cancer); NCI-H460 (human non-small lung cancer); and JURKAT (human T-cell lymphoma) cell lines were obtained from the National Centre for Cell Science (NCCS, Pune, India). All cells were cultured in DMEM—except JURKAT cells, which were cultured in RPMI media—and supplemented with 10% fetal bovine serum (HiMedia, India) with penicillin (100 I.U/mL) and streptomycin (100 μg/mL) at 37° C. in a humidified atmosphere of 5% CO2 in air. Cultured cells of 75-85% confluency were used for the assays. Adherent cells were trypsinized, counted and seeded in 96-well plates for viability studies. Cells were allowed to adhere overnight before treatment in the experiments. JURKAT cells were washed with D-PBS, counted and seeded in 96-well plates for viability studies. Cytotoxicity of compound 4 for JURKAT cells was determined by 3-(4,5-dimethylthiazol-2-yl)-2,5-diphenyltetrazolium bromide (MTT) assay. In brief, cells were seeded with different concentrations of compound 4—specifically 1, 5, 10, 15, and 20 μM—in 96 wells plate at a density of 20000 cells per well and incubated for 24 h and 48 h at 37° C., in a CO2 incubator. The MTT assay was performed according to manufacturer instructions and absorbance of the treated and untreated cells were measured in a microplate reader at 570 nm wavelength. Results were represented as percentage of viability={[A570 (treated cells)−background]/[A570 (untreated cells)−background]}×100. Each treatment was performed in triplicate (N=3).

[2] = system: Caspase-3 in JURKAT cells; assay: Caspase-3 expression assay, FITC staining, flow cytometry; settings: 48 h, 10.33 μM, CPT 40 μM
Description: Caspase-3 expression was measured using FITC staining. […] Apoptotic caspases are believed to be activated in a protease cascade in which the activated apical caspases responding to apoptotic stimuli directly activate the executioner (effector) caspases in a precisely controlled process. Among these effector caspases, caspase-3, a member of the cysteine protease family, plays a central role in the execution phase of both intrinsic (mitochondrial) and extrinsic (death receptor) pathways of apoptosis by cleaving many key cellular proteins, such as poly (ADP ribose) polymerase (PARP), inhibitor of caspase-activated DNase (ICAD), and several others. Briefly, JURKAT cells (1×10^6 cells/well) were seeded in a 6-well plate. […] The JURKAT cells were harvested and then fixed with 70% ice-cold ethanol followed by incubation at −20° C. for 30 min. The fixed JURKAT cells were washed twice with PBS and treated with 20 μl of Caspase-3-FITC (BD Biosciences) and incubated for 60 min at room temperature in dark conditions. Cells were washed with PBS and resuspended in 0.5 ml of PBS, before analysis for Caspase-3 expression using BD FACS Callibur (San Jose, Calif., USA).

JURKAT cells [3] = assay: FITC Annexin V/PI apoptosis assay by flow cytometry; settings: 48 h of treatment, compound 4 at 10.33 μM
Description: To determine whether the antiproliferative effect of compound 4 can trigger cell apoptosis, the percentage of JURKAT cells undergoing apoptosis was determined by flow cytometric analysis after the cells were stained with FITC Annexin V and proidium iodide (PI). […] As depicted in FIGS. 6A-6G, after 48 h of treatment with compound 4, a significant accumulation of AnnexinV^+ was observed, relative to CTP treated cells. 45.21% and 12.54% of cells were determined to be in early apoptosis (AnnexinV^+) when treated with compound 4 and CTP, respectively. Similarly, 46.32% and 14.33% of cells were determined to be in late apoptosis (AnnexinV^+, PI^+) when treated with compound 4 and CTP, respectively. Apoptosis assay was performed using FITC Annexin V Apoptosis Detection Kit I (BD Biosciences, San Jose, Calif., USA). The fluorescence intensities of FITC-conjugated Annexin V and PI in compound 4 treated, control treated and untreated cells were analyzed using flow cytometry. Briefly, JURKAT cells (1×10^6 cells/well) were seeded in a 6-well plate. […] Following trypsinization, cells were centrifuged at 1000×g for 10 min, and the pellet was gently resuspended in 100 μL FITC Annexin V binding buffer and then incubated with 5 μL of FITC Annexin V in the dark for 10 min at 25° C. The cells were then centrifuged at 2000 rpm for 5 min, gently resuspended in 500 μL of FITC Annexin V binding buffer and 5 μL of PI was added in an ice bath, followed by flow cytometry (BD FACS Calibur, San Jose, Calif., USA) the apoptotic cells were analyzed using Cell Quest software.

JURKAT cells [4] = assay: Cell cycle analysis, propidium iodide staining, flow cytometry; settings: 48 h, 10.33 μM
Description: Therefore, interruption of cell cycle progression is an important target for cancer treatment. JURKAT cells were treated with compound 4 for 48 h and stained with propidium iodide to determine the proportion of cells undergoing apoptosis or cell death as analyzed by flow cytometry. […] The percentage of compound 4-treated cells decreased in G0/G1 and G2/M phase. […] Checkpoints are the pathways that halt progression of the cell cycle in response to cellular stress. Targeting checkpoint pathways are potential anti-cancer strategies because abrogation of checkpoint function drives tumor cells toward apoptosis and enhances the efficacy of oncotherapy. The cell cycle phase evaluation was performed as described by […] et al. (2007). Jurkat cells were plated at 1×10^6 cells/well in a six-well plate for 12 h and then cells were exposed with compound-4 in serum-free media and incubated for an additional 48 h. […] Following trypsinization, cells were centrifuged at 1000×g for 10 min, and the pellet was resuspended in PBS. Fixation was completed by adding 70% cold ethanol for at least 2 h. The fixed cells were centrifuged at 1000 g for 10 min, and the pellet suspended in PBS. After 60 s, the cells were centrifuged as before, and the pellet resuspended in 1 ml of propidium iodide (PI) staining solution. Immediately after 15 min incubation at 37° C., the cells were analyzed to determine the cell cycle stage using flow cytometry (BD FACS Calibur, San Jose, Calif., USA) with an excitation wavelength of 488 nm and an emission at 670 nm using the Cell Quest software for analysis. The data presented represent at least three independent experiments conducted in triplicate (N=3).

JURKAT cells [5] = assay: DNA fragmentation by TUNEL assay; settings: 48 h, 10.33 μM
Excerpt: DNA fragmentation is a key feature of apoptosis, and is largely due to activation of endogenous endonucleases that induce cleavage of chromatin DNA into internucleosomal fragments of roughly 180 base pairs. Apoptosis can be qualitatively assessed by monitoring DNA fragmentation trends, for instance, using terminal deoxynucleotidyl transferase dUTP nick end labeling (TUNEL) assay. For untreated […] cells, TUNEL assay results indicated a constant base line of TUNEL-positive cells. […] DNA fragmentation was monitored in treated, control treated and untreated JURKAT cells to identify stages of apoptosis. […] Supernatant and adherent cells were collected in a centrifuge tube and then washed twice with PBS. The cells were fixed with 70% ice-cold ethanol by incubating at -20° C. for 30 min. The fixed cells were resuspended in wash buffer, and then washed twice by centrifugation. 50 μl of DNA labeling solution was added to each cell pellet. The cell pellets were incubated with the DNA labeling solution at 37° C. for 60 min. The cell pellets were rinsed with rinse buffer and then resuspended with 0.5 ml of PI/RNase Staining Buffer and incubated for 30 min at RT. Flow cytometry was performed to detect DNA fragmentation (BD FACS Calibur, San Jose, Calif., USA).

JURKAT cells [6] = assay: Mitochondrial membrane potential (ΔΨm) assay, JC-1 staining; settings: 48 h, 10.33 μM
Description: Mitochondrial membrane depolarization is an early event in apoptosis. Chemotherapeutic agents usually induce apoptosis via the mitochondrial pathway. Evaluation of the effect of compound 4 treatment on mitochondrial membrane depolarization was determined using flow cytometry after staining with mitochondrial potential-sensitive dye JC-1. […] Mitochondrial membrane potential (ΔΨm) was determined using JC-1, a fluorescent carbocyanine dye (Smiley et al., 1991). Briefly, JURKAT cells (1×10^6 cells/well) were seeded in a 6-well plate. […] Each of the cell pellets were incubated with 2.5 μM JC-1 for 15 min at 37° C. in darkness. Subsequently, stained cells were washed with PBS, followed by FACS analysis (BD FACS Calibur, San Jose, Calif., USA).

HCT116 cells = assay: MTT cytotoxicity assay on HCT116 cells; settings: HCT116, 1-20 μM, 24 and 48 hours
Description: as §1

Compound | Proliferation of the cancer cells (MCF7 cells) | Proliferation of the cancer cells (NCI-H460 cells) | IC50 (JURKAT cells [1]; MTT, 24 h, read-out: IC50 (half maximal inhibitory concentration)) [µM] | IC50 (JURKAT cells [1]; MTT, 48 h, read-out: IC50 (half maximal inhibitory concentration)) [µM] | Proliferation of the cancer cells (JURKAT cells [1]; JURKAT, 1-20 μM, 24 and 48 hours) | Inhibition compared to positive control CPT (40 μM) (JURKAT cells [1]; compound 4 at 15 μM and 20 μM) | caspase-3 expression compared with CPT control treated cells [2] | cells in early apoptosis (AnnexinV+) (JURKAT cells [3]) [%] | cells in late apoptosis (AnnexinV+, PI+) (JURKAT cells [3]) [%] | percentage of cells in G0/G1 phase (JURKAT cells [4]) | percentage of cells in G2/M phase (JURKAT cells [4]) | percentage of cells in S phase compared to untreated cells (JURKAT cells [4]) | percentage of cells in sub G0/G1 phase compared to untreated cells (JURKAT cells [4]) | number of TUNEL-positive cells compared with untreated or control cells (JURKAT cells [5]) | DNA fragmentation relative to CTP (control) treated cells (JURKAT cells [5]; CPT 40 μM) | mitochondrial membrane potential (ΔΨm) compared to control (untreated) cells (JURKAT cells [6]) | Proliferation of the cancer cells (HCT116 cells) | IC50 (JURKAT cells [1]; given as treatment concentration, time not stated, read-out: IC50 of CPT as stated in the methods) [µM]
O=C1/C(=C/c2ccc(Br)cc2)CN2CC13C(c1ccc(Br)cc1)C1Cc4ccccc4CN1C31c3cccc4cccc(c34)[C@@]21O (some centres unmarked) [compound 4] | significantly inhibited in a concentration-dependent manner | significantly inhibited in a concentration-dependent manner | 15.6 | 10.3 | significantly inhibited in a concentration-dependent manner | higher inhibition | higher caspase-3 expression | 45.21 | 46.32 | decreased | decreased | significantly increased | moderately increased | significant increase | increased DNA fragmentation | Significant decrease | significantly inhibited in a concentration-dependent manner | –
CC[C@@]1(O)C(=O)OCc2c1cc1n(c2=O)Cc2cc3ccccc3nc2-1 [CPT, camptothecin, reference compound] | – | – | – | – | – | – | – | 12.54 | 14.33 | – | – | – | – | – | – | – | – | 40
